# From US10689622B2, “Culture medium for proliferating stem cell, which contains sulfated compound” (AJINOMOTO CO., INC., priority 2012, dated 2020)
# Key:
# bFGF = biological target: T1, bFGF (Homo sapiens, UniProt P09038); assay: Evaluation of bFGF stabilization in Essential 8 medium (ELISA); format: biochemical; details: 37° C. for 7 days
# T1 construct: purchased Lonza (via TAKARA BIO INC.) Ser. No. 00/190,632
# In short: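 Test compound in PBS diluted 10-fold into serum-free medium (Essential 8 or ReproFF2), held sealed at 37° C for 7 days; remaining bFGF quantified by ELISA against a standard curve. Controls: PBS without compound diluted into each medium, held 7 days at 37° C or 4° C.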
# [1] = Measurement of content level of sulfur in test compound (ICP); format: physicochemical
# In short: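 Sulfur content was measured by ICP emission spectrometry on samples containing 0.01 wt % test compound. Values came from a calibration curve of sulfur standards at 0, 1, 10, 30 and 50 ppm.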
# [2] = compound used in the Examples, stated in the description
# T1 sequence (P09038 143-288): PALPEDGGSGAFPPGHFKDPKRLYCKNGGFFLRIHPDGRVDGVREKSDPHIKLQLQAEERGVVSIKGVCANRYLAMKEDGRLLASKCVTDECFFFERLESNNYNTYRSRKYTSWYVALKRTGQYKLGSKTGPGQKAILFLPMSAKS
structure (smiles),measurement,setting,value
O=S(=O)([O-])OC[C@H]1O[C@@](COS(=O)(=O)[O-])(O[C@H]2O[C@H](COS(=O)(=O)[O-])[C@@H](OS(=O)(=O)[O-])[C@H](OS(=O)(=O)[O-])[C@H]2OS(=O)(=O)[O-])[C@@H](OS(=O)(=O)[O-])[C@@H]1OS(=O)(=O)[O-].[K+].[K+].[K+].[K+].[K+].[K+].[K+].[K+] [sucrose 8SO3K],concentration showing a suppressive effect on a decrease in the bFGF concentration of the medium,bFGF,not less than 2.5 μg/ml
same,bFGF concentration relative to that of 4° C. control (ELISA),bFGF; test compound 250 pg/ml,x (bFGF concentration was less than 10% relative to that of 4 °C control)
same,bFGF concentration relative to that of 4° C. control (ELISA),bFGF; test compound 25 ng/ml,x (bFGF concentration was less than 10% relative to that of 4 °C control)
same,bFGF concentration relative to that of 4° C. control (ELISA),bFGF; test compound 250 ng/ml,x (bFGF concentration was less than 10% relative to that of 4 °C control)
same,bFGF concentration relative to that of 4° C. control (ELISA),bFGF; test compound 25 μg/ml,+++ (bFGF concentration was not less than 70% relative to that of 4 °C control)
same,bFGF concentration relative to that of 4° C. control (ELISA),bFGF; test compound 250 μg/ml,+++ (bFGF concentration was not less than 70% relative to that of 4 °C control)
same,sulfur content Found (inorganic analysis),"[1]; ICPS-8100, evaluation samples containing 0.01 wt % test compound",17 wt %
same,sulfate group / sulfo group content level,[1]; [2],48.8 wt %
same,sulfur content (content level of sulfur),[1]; [2],19.5 wt %
